US20150148256A1, “BIOLUMINESCENCE IMAGING-BASED SCREENING ASSAY AND INHIBITORS OF ABCG2” (THE JOHNS HOPKINS UNIVERSITY, priority 2008, published 2015)
Structures can show the parent of a compound that is named as a salt. Where two headings read alike, the source gives them in different places.

Assays:
[1] = test system: ABCG2-overexpressing NCI-H460/MX20 cells; settings: for MTX (mitoxantrone resensitization assay): H460/MX20 cells with MTX
ABCG2 = molecular target: T1, ABCG2 (Homo sapiens, UniProt Q9UNQ0); experiment: Bioluminescence imaging (BLI) assay in HEK293/ABCG2/fLuc cells
T1 sequence (Q9UNQ0 1-655): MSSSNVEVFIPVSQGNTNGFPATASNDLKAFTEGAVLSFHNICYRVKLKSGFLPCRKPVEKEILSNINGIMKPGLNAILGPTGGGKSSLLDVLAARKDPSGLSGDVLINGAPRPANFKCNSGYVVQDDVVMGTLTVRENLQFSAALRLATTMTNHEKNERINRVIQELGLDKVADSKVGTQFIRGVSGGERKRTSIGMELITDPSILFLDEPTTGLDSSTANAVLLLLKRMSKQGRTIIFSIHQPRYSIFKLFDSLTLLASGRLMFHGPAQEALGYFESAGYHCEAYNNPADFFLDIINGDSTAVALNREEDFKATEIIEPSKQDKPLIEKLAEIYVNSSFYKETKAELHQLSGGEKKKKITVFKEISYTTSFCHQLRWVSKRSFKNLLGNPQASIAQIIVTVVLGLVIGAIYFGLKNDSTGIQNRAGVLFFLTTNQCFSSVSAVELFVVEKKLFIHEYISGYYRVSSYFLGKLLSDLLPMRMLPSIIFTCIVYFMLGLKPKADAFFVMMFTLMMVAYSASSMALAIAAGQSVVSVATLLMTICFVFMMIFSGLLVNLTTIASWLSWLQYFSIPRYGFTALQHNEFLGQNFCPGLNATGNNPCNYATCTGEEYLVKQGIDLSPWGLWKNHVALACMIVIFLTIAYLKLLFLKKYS
Method in brief: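 Light output from HEK293/ABCG2/fLuc cells plated at 4×10^4 per well, treated with compounds, imaged every 5 min for ~1 h. Values are signal-to-background ratios versus solvent control at 40 min, indicating ABCG2 inhibition. Dose range 0.001 μM-100 μM with 50 μg/mL D-luciferin for selected compounds.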

[2] = Table 2, HEK293/ABCG2/fLuc cells, compound approximately 17 μM, ~50 μg/mL D-luciferin, 40 min time point

CCCCNc1c(C(=O)OCC)c(C)nc2c1cnn2CC [tracazolate]
MTX (mitoxantrone resensitization assay) [1]: Y | Fold (BLI enhancement), previously unknown compounds (ABCG2; human, 40 min, 17 μM): 20 fold | Fold (BLI enhancement, S/B ratio over control) (ABCG2; human, 40 min, 17 μM): 20.0 fold

C[C@H]1O[C@@H](O[C@H]2[C@@H](O)C[C@H](O[C@H]3[C@@H](O)C[C@H](O[C@H]4CC[C@@]5(C)[C@H](CC[C@@H]6[C@@H]5CC[C@]5(C)[C@@H](C7=CC(=O)OC7)CC[C@]65O)C4)O[C@@H]3C)O[C@@H]2C)C[C@H](O)[C@@H]1O [digitoxin]
reduction of survival rate of H460/MX20 cells [1]: did not reduce the survival rate of H460/MX20 cells significantly | BLI signal enhancement at lower concentrations (ABCG2): enhance BLI signal minimally | Fold (BLI enhancement), previously unknown compounds (ABCG2; human): 5.7 fold | Fold (BLI enhancement, S/B ratio over control) (ABCG2; human): 5.7 fold

CCCCCCCCCCCCOCCOCCOCCOCCO [brij, Brij 30]
resensitization of H460/MX20 cells to MTX ([1]; after two days of incubation (data not shown)): resensitize H460/MX20 cells to MTX significantly

O=C1C[C@@H](c2ccc(O)cc2)Oc2cc(O)cc(O)c21 [naringenin]
BLI signal enhancement (ABCG2; human, 40 min, 17 μM): 1.9 fold | fold (BLI enhancement), additional previously known ABCG2 inhibitors (ABCG2; human, 40 min, 17 μM): 1.9 fold

N#CC(c1ccc(Cl)cc1)c1c(Cl)cc(-n2ncc(=O)[nH]c2=O)cc1Cl (centres unmarked) [diclazuril]
Fold (BLI enhancement, S/B ratio over control) (ABCG2; human, 40 min, 17 μM): 2.4 fold

acetophenazine maleate
MTX (mitoxantrone resensitization assay) [1]: Y

COc1ccc([C@@H]2CC(=O)c3c(O)cc(O)cc3O2)cc1O [hesperetin]
Fold (BLI enhancement), known compounds (ABCG2; human, 40 min, 17 μM): 5.0 fold | Fold (BLI enhancement, S/B ratio over control) (ABCG2; human, 40 min, 17 μM): 5.0 fold

CCC(=O)OCC(=O)[C@@]1(OC(=O)CC)[C@@H](C)C[C@H]2[C@@H]3CCC4=CC(=O)C=C[C@]4(C)[C@@]3(Cl)[C@@H](O)C[C@@]21C [beclomethasone dipropionate]
Fold (BLI enhancement, S/B ratio over control) (ABCG2; human, 40 min, 17 μM): 3.2 fold

CCN(CC)Cc1cc(Nc2ccnc3cc(Cl)ccc23)ccc1O [amodiaquin]
Fold (BLI enhancement, S/B ratio over control) (ABCG2; human, 40 min, 17 μM): 3.8 fold

OCCN1CCN(CCCN2c3ccccc3Sc3ccc(Cl)cc32)CC1 [perphenazine]
Fold (BLI enhancement, S/B ratio over control) (ABCG2; human, 40 min, 17 μM): 4.2 fold

C[C@]12Cc3c[nH]nc3C[C@@H]1CC[C@@H]1[C@@H]2CC[C@@]2(C)[C@H]1CC[C@]2(C)O [stanozolol]
Fold (BLI enhancement, S/B ratio over control) (ABCG2; human): 2.8 fold

O=C(Nc1ccccc1)c1ccccc1O [salicylanilide]
Fold (BLI enhancement, S/B ratio over control) (ABCG2; [2]): 2.2 fold

FC(F)(F)c1ccc2c(c1)N(CCCN1CCN(CCCl)CC1)c1ccccc1S2 [fluphenazine N-mustard]
Fold (BLI enhancement, S/B ratio over control) (ABCG2): 3.6 fold

CC(C)c1nc(N(C)S(C)(=O)=O)nc(-c2ccc(F)cc2)c1/C=C/[C@@H](O)C[C@@H](O)CC(=O)O [rosuvastatin]
Fold (BLI enhancement, S/B ratio over control) (ABCG2; human, 40 min, 17 μM): 3.9 fold

COS(=O)(=O)[O-].C[n+]1c2ccccc2nc2ccccc21 [phenazine methosulfate]
Fold (BLI enhancement, S/B ratio over control) (ABCG2; [2]): 2.8 fold

hesperidin methyl chalcone
Fold (BLI enhancement, S/B ratio over control) (ABCG2; [2]): 2.1 fold

Clc1ccc(COC(Cn2ccnc2)c2ccc(Cl)cc2Cl)cc1 (centres unmarked) [econazole]
Fold (BLI enhancement, S/B ratio over control) (ABCG2; human, 40 min, 17 μM): 2.5 fold

Cc1c2ccncc2c(C)c2c1[nH]c1ccccc12 [ellipticine]
Fold (BLI enhancement, S/B ratio over control) (ABCG2; [2]): 2.5 fold

COc1ccc(C(=O)c2c(C)n(CCN3CCOCC3)c3ccccc23)cc1 [pravadoline]
Fold (BLI enhancement, S/B ratio over control) (ABCG2; [2]): 2.7 fold

COc1ccc2c(c1OC)C(=O)O[C@@H]2[C@H]1c2c(cc3c(c2OC)OCO3)CCN1C [noscapine hydrochloride]
Fold (BLI enhancement, S/B ratio over control) (ABCG2; human, 40 min, 17 μM): 2.3 fold

C=C(C)[C@]12C[C@@H](C)[C@@]34O[C@](Cc5ccccc5)(O[C@@H]1[C@@H]3C=C(COC(=O)Cc1ccc(O)c(OC)c1)C[C@]1(O)C(=O)C(C)=C[C@@H]41)O2 [resiniferatoxin]
Fold (BLI enhancement, S/B ratio over control) (ABCG2; [2]): 4.2 fold

COCCOC(=O)C1=C(C)NC(C)=C(C(=O)OC(C)C)C1c1cccc([N+](=O)[O-])c1 (centres unmarked) [nimodipine]
Fold (BLI enhancement, S/B ratio over control) (ABCG2; human, 40 min, 17 μM): 2.8 fold | fold (BLI enhancement), additional previously known ABCG2 inhibitors (ABCG2; human, 40 min, 17 μM): 2.8 fold

COc1c2occc2c(OC)c2c(=O)cc(C)oc12 [khellin]
Fold (BLI enhancement, S/B ratio over control) (ABCG2; human, 40 min, 17 μM): 3.4 fold

CN(C)CCOc1ccc(/C(=C(/CCCl)c2ccccc2)c2ccccc2)cc1 [toremifene]
Fold (BLI enhancement, S/B ratio over control) (ABCG2; human, 40 min, 17 μM): 2.3 fold
